# Tests used:
# [1] = tested on: F4ac-expressing E. coli strain GIS 26; assay: In vitro villous adhesion assay after treatment of porcine villi with agents (control strain); type: cell-based, Escherichia coli; settings: villi treated 1 h at room temperature; 1% Triton X-100; 10 mM NaIO4 in 0.2M sodium acetate pH 4.5
# Description: (§1) The nature of the F18R on porcine small intestinal villous enterocytes was investigated using an in vitro villous adhesion inhibition assay (Cox, E., Houvenaghel, A., 1993. Vet. Microbiol. 34(1), 7-18; Verdonck, F., Cox, E., van Gog, K., Van der Stede, Y., Duchateau, L., Deprez, P., Goddeeris, B. M., 2002. Vaccine 20(23-24), 2995-3004). Briefly, a 20 cm intestinal segment was collected from the mid jejunum of a euthanized pig, rinsed three times with ice cold PBS, and fixed with Krebs-Henseleit buffer (160 mM, pH 7.4) containing 1% (v/v) formaldehyde for 30 min at 4° C. Thereafter, the villi were gently scraped from the mucosae with a glass slide and stored in Krebs-Henseleit buffer at 4° C. Treatment of villi with acetone, methanol, 1% Triton® X-100, 10 mM NaIO4 in 0.2M sodium acetate, pH 4.5, or 0.2M sodium acetate, pH 4.5, without NaIO4, respectively, was performed at room temperature on a rotating wheel in a volume of 500 μl during 1 h. Next, the villi were washed 6 times with Krebs-Henseleit buffer followed by addition of 4×10^8 bacteria of the F18 positive reference E. coli strain (107/86), or the F4ac-expressing E. coli strain GIS 26, to an average of 50 villi in a total volume of 500 μl PBS, supplemented with 1% (w/v) D-mannose in order to prevent adhesion mediated by type 1 pili. These mixtures were incubated at room temperature for 1 h while being gently shaken. Villi were examined by phase-contrast microscopy at a magnification of 600, and the number of bacteria adhering along 50 μm brush border was quantitatively evaluated by counting the number of adhering bacteria at 20 randomly selected places, after which the mean bacterial adhesion was calculated.
# (§2) To examine the character of the F18R, intestinal villi isolated from four pigs were treated with different agents that affect lipids or carbohydrates on the enterocyte cell membrane. Treatment was followed by assessment of adhesion of F18-fimbriated E. coli to the villus epithelium.
# [2] = tested on: F18 positive reference E. coli strain (107/86); assay: In vitro villous adhesion assay after treatment of porcine villi with agents; type: cell-based, Escherichia coli; settings: villi of four pigs treated 1 h at room temperature; 1% Triton X-100; 10 mM NaIO4 in 0.2M sodium acetate pH 4.5
# Description: as §1, §2
molecule,measurement,setting,value
Triton® X-100,Adhesion of control F4ac-fimbriated E. coli strain to porcine intestinal villi after treatment of the villi,[1],no or only little effect
same,Adhesion of F18-fimbriated E. coli to porcine intestinal villi after treatment of the villi,[2],completely abolished
CC(C)=O [acetone],Adhesion of control F4ac-fimbriated E. coli strain to porcine intestinal villi after treatment of the villi,[1],no or only little effect
same,Adhesion of F18-fimbriated E. coli to porcine intestinal villi after treatment of the villi,[2],completely abolished

# Source: patent US8703722B2, “Inhibitors of F18+ E coli binding” (priority 2008, dated 2014)
